Experimental data reported in article PMC6618241 (Angewandte Chemie (International Ed. in English), 2019).

Tested on: MRSA USA300 LAC
Assay: Antimicrobial activity assay
Format: cell-based, Staphylococcus aureus

## (CPraWLVWV) (head to tail) [compound 24, 2‐Pra‐6‐Trp‐lug]
MIC ≥100 μg mL^−1 regarded as inactive
  antimicrobial activity against USA300 (in words): active
From MIC values, compared with 1
  change of antimicrobial activity relative to 1: equal activity
